Assay results: patent US9695155B2, “Herbicidal substituted pyrimidinyloxy benzene compounds” (E. I. DU PONT DE NEMOURS AND COMPANY, priority 2013, dated 2017)

Experiments:
[1] = system: rice; assay: Test B flooded paddy test; assay type: in vivo, Oryza sativa; settings: Flood, 250 g ai/ha; 0 to 100 scale where 0 is no effect and 100 is complete control
Summary of the method: (§1)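 Flooded to 3 cm at the 2-leaf stage, pots received compound through the paddy water and were kept at that depth under greenhouse conditions. After 13–15 days, effect was rated by eye relative to controls, 0 = none and 100 = complete control.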

[2] = system: morningglory; assay: Test A preemergence; assay type: in vivo, Ipomoea spp.; settings: for Morningglory plant response rating: 500 g ai/ha
Summary of the method: (§2)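 Compounds in non-phytotoxic solvent with surfactant applied as soil spray preemergence, or postemergence to plants 2-10 cm at one- to two-leaf stage, in loam/sand. After approximately 10 days in greenhouse, injury rated visually versus untreated controls, 0 (no effect) to 100 (complete control).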

[3] = system: giant foxtail; assay: Test A postemergence; assay type: in vivo, Setaria faberii
Summary of the method: as §2

[4] = system: large (Lg) crabgrass; assay: Test A postemergence; assay type: in vivo, Digitaria sanguinalis
Summary of the method: as §2

[5] = system: morningglory; assay: Test A postemergence; assay type: in vivo, Ipomoea spp.
Summary of the method: as §2

[6] = system: corn; assay: Test A preemergence; assay type: in vivo, Zea mays; settings: for Corn plant response rating: 500 g ai/ha
Summary of the method: as §2

[7] = system: large (Lg) crabgrass; assay: Test A preemergence; assay type: in vivo, Digitaria sanguinalis; settings: for Crabgrass, Large plant response rating: 500 g ai/ha
Summary of the method: as §2

[8] = system: velvetleaf; assay: Test A postemergence; assay type: in vivo, Abutilon theophrasti
Summary of the method: as §2

[9] = system: wheat; assay: Test A postemergence; assay type: in vivo, Triticum aestivum
Summary of the method: as §2

[10] = system: sedge, umbrella; assay: Test B flooded paddy test; assay type: in vivo, Cyperus difformis; settings: Flood, 250 g ai/ha; 0 to 100 scale where 0 is no effect and 100 is complete control
Summary of the method: as §1

[11] = system: barnyardgrass; assay: Test A preemergence; assay type: in vivo, Echinochloa crus-galli; settings: for Barnyardgrass plant response rating: 500 g ai/ha
Summary of the method: as §2

[12] = system: wheat; assay: Test A preemergence; assay type: in vivo, Triticum aestivum; settings: for Wheat plant response rating: 500 g ai/ha
Summary of the method: as §2

[13] = system: barnyardgrass; assay: Test B flooded paddy test; assay type: in vivo, Echinochloa crus-galli; settings: Flood, 250 g ai/ha; 0 to 100 scale where 0 is no effect and 100 is complete control
Summary of the method: as §1

[14] = system: pigweed; assay: Test A preemergence; assay type: in vivo, Amaranthus retroflexus; settings: for Pigweed plant response rating: 500 g ai/ha
Summary of the method: as §2

[15] = system: barnyardgrass; assay: Test A postemergence; assay type: in vivo, Echinochloa crus-galli
Summary of the method: as §2

[16] = system: velvetleaf; assay: Test A preemergence; assay type: in vivo, Abutilon theophrasti; settings: for Velvetleaf plant response rating: 500 g ai/ha
Summary of the method: as §2

[17] = system: giant foxtail; assay: Test A preemergence; assay type: in vivo, Setaria faberii; settings: for Foxtail, Giant plant response rating: 500 g ai/ha
Summary of the method: as §2

[18] = system: corn; assay: Test A postemergence; assay type: in vivo, Zea mays
Summary of the method: as §2

[19] = system: Heteranthera limosa; assay: Test B flooded paddy test; assay type: in vivo; settings: Flood, 250 g ai/ha; 0 to 100 scale where 0 is no effect and 100 is complete control
Summary of the method: as §1

[20] = system: pigweed; assay: Test A postemergence; assay type: in vivo, Amaranthus retroflexus
Summary of the method: as §2

[21] = 125 g ai/ha, 0 to 100 scale where 0 is no effect and 100 is complete control
[22] = 0 to 100 scale, 0 no effect, 100 complete control, approx. 10 days
[23] = 500 g ai/ha, 0 to 100 scale where 0 is no effect and 100 is complete control
[24] = 500 g ai/ha, 0 to 100 scale, 0 no effect, 100 complete control
[25] = 0 to 100 scale where 0 is no effect and 100 is complete control
[26] = 125 g ai/ha, 0 to 100 scale, 0 no effect, 100 complete control

Compound: FC(F)(F)c1cccc(Oc2ncc(Cl)cn2)c1-n1cc(Br)cn1 [Compound 64]
- Plant response rating, Rice [1]: 0
- Plant response rating, Morningglory [2, 21]: 0
- Morningglory plant response rating [2, 22]: 20
- Plant response rating, Foxtail, Giant [3, 21]: 80
- Plant response rating, Foxtail, Giant [3, 23]: 100
- Plant response rating, Crabgrass, Large [4, 21]: 80
- Plant response rating, Crabgrass, Large [4, 24]: 100
- Plant response rating, Morningglory [5, 21]: 60
- Plant response rating, Morningglory [5, 23]: 80
- Plant response rating, Corn [6, 21]: 0
- Corn plant response rating [6, 22]: 70
- Plant response rating, Crabgrass, Large [7, 21]: 90
- Crabgrass, Large plant response rating [7, 22]: 90
- Plant response rating, Velvetleaf [8, 21]: 100
- Plant response rating, Velvetleaf [8, 23]: 100
- Plant response rating, Wheat [9, 21]: 0
- Plant response rating, Wheat [9, 23]: 30
- Plant response rating, Sedge, Umbrella [10]: 80
- Plant response rating, Barnyardgrass [11, 21]: 60
- Barnyardgrass plant response rating [11, 22]: 100
- Plant response rating, Wheat [12, 21]: 0
- Wheat plant response rating [12, 22]: 30
- Plant response rating, Barnyardgrass [13]: 0
- Plant response rating, Pigweed [14, 21]: 90
- Pigweed plant response rating [14, 22]: 100
- Plant response rating, Barnyardgrass [15, 21]: 60
- Plant response rating, Barnyardgrass [15, 24]: 100
- Plant response rating, Velvetleaf [16, 21]: 40
- Velvetleaf plant response rating [16, 22]: 90
- Plant response rating, Foxtail, Giant [17, 21]: 90
- Foxtail, Giant plant response rating [17, 22]: 90
- Plant response rating, Corn [18, 21]: 30
- Plant response rating, Corn [18, 24]: 90
- Plant response rating, Ducksalad [19]: 70
- Plant response rating, Pigweed [20, 21]: 100
- Plant response rating, Pigweed [20, 23]: 100

Compound: N#Cc1cccc(Oc2ncc(I)cn2)c1-n1cc(Cl)cn1 [Compound 75]
- Plant response rating, Rice [1]: 0
- Plant response rating, Morningglory [2, 21]: 20
- Morningglory plant response rating [2, 22]: 30
- Plant response rating, Foxtail, Giant [3, 21]: 10
- Plant response rating, Foxtail, Giant [3, 23]: 80
- Plant response rating, Crabgrass, Large [4, 21]: 20
- Plant response rating, Crabgrass, Large [4, 24]: 70
- Plant response rating, Morningglory [5, 21]: 50
- Plant response rating, Morningglory [5, 23]: 60
- Plant response rating, Corn [6, 21]: 0
- Corn plant response rating [6, 22]: 10
- Plant response rating, Crabgrass, Large [7, 21]: 70
- Crabgrass, Large plant response rating [7, 22]: 100
- Plant response rating, Velvetleaf [8, 21]: 40
- Plant response rating, Velvetleaf [8, 23]: 70
- Plant response rating, Wheat [9, 21]: 0
- Plant response rating, Wheat [9, 23]: 0
- Plant response rating, Sedge, Umbrella [10]: 50
- Plant response rating, Barnyardgrass [11, 21]: 20
- Barnyardgrass plant response rating [11, 22]: 70
- Plant response rating, Wheat [12, 21]: 0
- Wheat plant response rating [12, 22]: 0
- Plant response rating, Barnyardgrass [13]: 0
- Plant response rating, Pigweed [14, 21]: 100
- Pigweed plant response rating [14, 22]: 100
- Plant response rating, Barnyardgrass [15, 21]: 30
- Plant response rating, Barnyardgrass [15, 24]: 70
- Plant response rating, Velvetleaf [16, 21]: 40
- Velvetleaf plant response rating [16, 22]: 80
- Plant response rating, Foxtail, Giant [17, 21]: 40
- Foxtail, Giant plant response rating [17, 22]: 100
- Plant response rating, Corn [18, 21]: 0
- Plant response rating, Corn [18, 24]: 40
- Plant response rating, Ducksalad [19]: 60
- Plant response rating, Pigweed [20, 21]: 70
- Plant response rating, Pigweed [20, 23]: 100

Compound: CNN=Cc1cccc(Oc2ncc(Cl)cn2)c1-n1cc(Cl)cn1 [Compound 296]
- Plant response rating, Rice [1]: 0
- Morningglory plant response rating (0 to 100 scale) ([2]; 125 g ai/ha): 0
- Morningglory plant response rating [2, 25]: 0
- Plant response rating, Foxtail, Giant [3, 26]: 0
- Plant response rating, Foxtail, Giant [3, 23]: 0
- Plant response rating, Crabgrass, Large [4, 26]: 0
- Plant response rating, Crabgrass, Large [4, 23]: 0
- Plant response rating, Morningglory [5, 26]: 20
- Plant response rating, Morningglory [5, 23]: 20
- Corn plant response rating (0 to 100 scale) ([6]; 125 g ai/ha): 0
- Corn plant response rating [6, 25]: 0
- Crabgrass, Large plant response rating (0 to 100 scale) ([7]; 125 g ai/ha): 0
- Crabgrass, Large plant response rating [7, 25]: 60
- Plant response rating, Velvetleaf [8, 26]: 30
- Plant response rating, Velvetleaf [8, 23]: 30
- Plant response rating, Wheat [9, 26]: 0
- Plant response rating, Wheat [9, 23]: 20
- Plant response rating, Sedge, Umbrella [10]: 0
- Barnyardgrass plant response rating (0 to 100 scale, 0 is no effect, 100 is complete control) ([11]; 125 g ai/ha): 0
- Barnyardgrass plant response rating [11, 25]: 10
- Wheat plant response rating (0 to 100 scale) ([12]; 125 g ai/ha): 0
- Wheat plant response rating [12, 25]: 0
- Plant response rating, Barnyardgrass [13]: 0
- Pigweed plant response rating (0 to 100 scale) ([14]; 125 g ai/ha): 0
- Pigweed plant response rating [14, 25]: 90
- Plant response rating, Barnyardgrass [15, 26]: 0
- Plant response rating, Barnyardgrass [15, 23]: 0
- Velvetleaf plant response rating (0 to 100 scale) ([16]; 125 g ai/ha): 0
- Velvetleaf plant response rating [16, 25]: 10
- Foxtail, Giant plant response rating (0 to 100 scale) ([17]; 125 g ai/ha): 0
- Foxtail, Giant plant response rating [17, 25]: 10
- Plant response rating, Corn [18, 26]: 0
- Plant response rating, Corn [18, 23]: 10
- Plant response rating, Ducksalad [19]: 0
- Plant response rating, Pigweed [20, 26]: 30
- Plant response rating, Pigweed [20, 23]: 100
